Where two headings read alike, the source gives them in different places.
Experiments:
[1] = system: human TERT expression (hTERT mRNA); assay: Quantitative real-time RT-PCR of hTERT mRNA expression (Ct, transcripts) in compound-treated cells; format: cell-based
Text: Telomerase is a ribonucleoprotein complex composed of the catalytic protein subunit (human telomerase reverse transcriptase or hTERT) and the RNA template. hTERT expression level can be measured by PCR.
Briefly, amplification of the target sequence is monitored per PCR cycle by detecting the fluorescence signal emitted by an internal probe that is degraded by the 5′ nuclease activity of the Taq polymerase. The emission signal accumulates in each sample, and the Ct required to reach a given fluorescence threshold is determined (Ct stands for Cycle Threshold and is a measure of the number of PCR cycles that are required to amplify a target—thus, a lower Ct score means that there is more abundant hTERT mRNA). Thus, the Ct value of a sample inversely correlates to the quantity of the starting cDNA which correlates to the number of mRNA transcripts. Using the cDNA of known quantity, a standard curve can be generated and used to determine the starting amount of mRNA transcripts based on the […] of each sample.
Quantitative real-time PCR can be done on cDNA from test compound-treated and nontreated cells by use of a ABI Prism 7900 Sequence Detection System (PE Applied Biosystems, Foster City, CA) following the Assays-on-Demand protocol (PE Applied Biosystems, Foster City, CA). Quantitative data can be analyzed using the Sequence Detection System software version 2.1 (PE Applied Biosystems).
The following compounds were tested in assays designed to identify compounds that enhance human TERT expression.

viable cells in culture = assay: Cell viability assay (CellTiter-Glo Luminescent Cell Viability Assay, ATP quantitation, percent of vehicle control)

O=S(=O)(Nc1cccc2cccnc12)N1CCCCCC1 [compound 1373]
Average Number of hTERT Transcripts [1]: 37.20 | Average Cell Viability after 24 Hours (% DMSO) (viable cells in culture): 65.74 % DMSO

COc1cc(C)ccc1OC1CCNCC1 [compound 1451]
Average Number of hTERT Transcripts [1]: 5.80 | Average Cell Viability after 24 Hours (% DMSO) (viable cells in culture): 96.84 % DMSO

O=[N+]([O-])c1ccc(NS(=O)(=O)c2cccc(C(F)(F)F)c2)cc1 [compound 1335]
Average Number of hTERT Transcripts ([1]; quantitative real-time RT-PCR): 11.78 | Average Cell Viability after 24 Hours (% DMSO) (viable cells in culture): 75.24 % DMSO

CCCCc1c(C)nn(-c2nc3ccccc3[nH]2)c1O [compound 1111]
Average Number of hTERT Transcripts ([1]; quantitative real-time RT-PCR): 18.99 | Average Cell Viability after 24 Hours (% DMSO) (viable cells in culture): 47.04 % DMSO

Cc1c2c(=O)n(-c3nc4ccccc4s3)nc-2cc(O)n1Cc1ccccc1 [compound 1117]
Average Number of hTERT Transcripts ([1]; quantitative real-time RT-PCR): 57.88 | Average Cell Viability after 24 Hours (% DMSO) (viable cells in culture): 84.16 % DMSO

OCCN1CCN(c2ncnc3scc(-c4ccccc4)c23)CC1 [compound 1544]
Average Number of hTERT Transcripts [1]: 3.85 | Average Cell Viability after 24 Hours (% DMSO) (viable cells in culture): 104.59 % DMSO

COC(=O)c1cc(OC)c(OC)cc1NC(=S)N1CCN(C)CC1 [compound 1357]
Average Number of hTERT Transcripts ([1]; quantitative real-time RT-PCR): 9.07 | Average Cell Viability after 24 Hours (% DMSO) (viable cells in culture): 95.29 % DMSO

S=C(Nc1cccc(Cl)c1)Nc1cc(Cl)ccc1Cl [compound 1345]
Average Number of hTERT Transcripts ([1]; quantitative real-time RT-PCR): 24.88 | Average Cell Viability after 24 Hours (% DMSO) (viable cells in culture): 45.42 % DMSO

CCC(C)NS(=O)(=O)c1ccc(NC(=O)CN2C(=O)c3ccccc3C2=O)cc1 (stereo not shown) [compound 1431]
Average Number of hTERT Transcripts [1]: 9.12 | Average Cell Viability after 24 Hours (% DMSO) (viable cells in culture): 100.20 % DMSO

Cc1ccccc1NC(=O)C1CCN(S(=O)(=O)c2ccc(Br)cc2)CC1 [compound 1376]
Average Number of hTERT Transcripts [1]: 4.72 | Average Cell Viability after 24 Hours (% DMSO) (viable cells in culture): 88.77 % DMSO

Cc1[nH]c2c(-c3ccc(Cl)cc3)cnn2c(=O)c1Cc1ccccc1 [compound 1146]
Average Number of hTERT Transcripts ([1]; quantitative real-time RT-PCR): 57.84 | Average Cell Viability after 24 Hours (% DMSO) (viable cells in culture): 63.23 % DMSO

CC1=NN(c2ccccc2)C(=O)C1C(=O)c1ccc(Br)cc1 (stereo not shown) [compound 1115]
Average Number of hTERT Transcripts ([1]; quantitative real-time RT-PCR): 59.18 | Average Cell Viability after 24 Hours (% DMSO) (viable cells in culture): 81.68 % DMSO

Cc1ccc(N2CC(C(=O)N3CCCC3)CC2=O)c(C)c1 (stereo not shown) [compound 1365]
Average Number of hTERT Transcripts ([1]; quantitative real-time RT-PCR): 10.67 | Average Cell Viability after 24 Hours (% DMSO) (viable cells in culture): 99.89 % DMSO

CCOC(=O)N1CCN(C(=O)Cc2c(C)nn(-c3nc(C)c(C)s3)c2O)CC1 [compound 1127]
Average Number of hTERT Transcripts ([1]; quantitative real-time RT-PCR): 20.86 | Average Cell Viability after 24 Hours (% DMSO) (viable cells in culture): 92.15 % DMSO

C/C(=N\NC(=O)c1c(O)ccc2ccccc12)c1ccccc1C(=O)O [compound 1531]
Average Number of hTERT Transcripts [1]: 32.70 | Average Cell Viability after 24 Hours (% DMSO) (viable cells in culture): 110.91 % DMSO

COCCNC(=O)c1cc(-c2cccs2)on1 [compound 1196]
Average Number of hTERT Transcripts ([1]; quantitative real-time RT-PCR): 163.15 | Average Cell Viability after 24 Hours (% DMSO) (viable cells in culture): 98.07 % DMSO

O=C(CSc1ccc(-c2ccccn2)nn1)Nc1ccc2c(c1)OCO2 [compound 1255]
Average Number of hTERT Transcripts ([1]; quantitative real-time RT-PCR): 56.91 | Average Cell Viability after 24 Hours (% DMSO) (viable cells in culture): 76.32 % DMSO

O=C(Nc1nc2ccc([N+](=O)[O-])cc2s1)c1cncc(Br)c1 [compound 1395]
Average Number of hTERT Transcripts [1]: 39.44 | Average Cell Viability after 24 Hours (% DMSO) (viable cells in culture): 63.84 % DMSO

COc1cccc(C=NNC(=O)C(C)Nc2cccc3ccccc23)c1O (stereo not shown) [compound 1279]
Average Number of hTERT Transcripts ([1]; quantitative real-time RT-PCR): 25.71 | Average Cell Viability after 24 Hours (% DMSO) (viable cells in culture): 63.90 % DMSO

COc1cc(NS(=O)(=O)c2cc(Cl)ccc2Cl)c2ncccc2c1 [compound 1026]
Average Number of hTERT Transcripts ([1]; quantitative real-time RT-PCR): 11.55 | Average Cell Viability after 24 Hours (% DMSO) (viable cells in culture): 52.03 % DMSO

Cc1ccc(N)cc1S(=O)(=O)N1CCCCC1 [compound 1341]
Average Number of hTERT Transcripts ([1]; quantitative real-time RT-PCR): 4.50 | Average Cell Viability after 24 Hours (% DMSO) (viable cells in culture): 110.20 % DMSO

Cc1cn(-c2ccc3c(Cl)cc(Cl)c(O)c3n2)nc1C [compound 1079]
Average Number of hTERT Transcripts ([1]; quantitative real-time RT-PCR): 98.36 | Average Cell Viability after 24 Hours (% DMSO) (viable cells in culture): 71.22 % DMSO

CCOc1ccc(NC(=O)Nc2cccc(C(C)=O)c2)c([N+](=O)[O-])c1 [compound 1442]
Average Number of hTERT Transcripts [1]: 7.65 | Average Cell Viability after 24 Hours (% DMSO) (viable cells in culture): 84.87 % DMSO

COC(=O)c1ccc(Cl)c2c1C1C=CCC1C(c1cccc(F)c1)N2 (stereo not shown) [compound 1459]
Average Number of hTERT Transcripts [1]: 11.14 | Average Cell Viability after 24 Hours (% DMSO) (viable cells in culture): 72.75 % DMSO

O=C(O)CCC(=O)Nc1nc(-c2ccccn2)cs1 [compound 1490]
Average Number of hTERT Transcripts [1]: 3.91 | Average Cell Viability after 24 Hours (% DMSO) (viable cells in culture): 111.59 % DMSO

CCN(Cc1ccncc1)C(=O)c1cccs1 [compound 1542]
Average Number of hTERT Transcripts [1]: 3.43 | Average Cell Viability after 24 Hours (% DMSO) (viable cells in culture): 111.82 % DMSO

CCN(CC)c1ccc(/C=N/NC(=O)C2CC2c2ccccc2)c(O)c1 (stereo not shown) [compound 1528]
Average Number of hTERT Transcripts [1]: 24.18 | Average Cell Viability after 24 Hours (% DMSO) (viable cells in culture): 69.89 % DMSO

Cc1nn2c(=O)cc(CSc3nnnn3-c3ccccc3)[nH]c2c1-c1ccc(Cl)cc1 [compound 1163]
Average Number of hTERT Transcripts ([1]; quantitative real-time RT-PCR): 68.40 | Average Cell Viability after 24 Hours (% DMSO) (viable cells in culture): 70.88 % DMSO

O=C(CSc1nc2ccccc2c(=O)n1-c1ccc(Cl)cc1)Nc1cccc(Cl)c1 [compound 1401]
Average Number of hTERT Transcripts [1]: 7.24 | Average Cell Viability after 24 Hours (% DMSO) (viable cells in culture): 96.20 % DMSO

O=C(Nc1nc(-c2ccccn2)cs1)c1ccc(-c2nc3ccccc3s2)s1 [compound 1496]
Average Number of hTERT Transcripts [1]: 11.43 | Average Cell Viability after 24 Hours (% DMSO) (viable cells in culture): 12.76 % DMSO

Cn1c(SCC(=O)N/N=C/c2sc3ccccc3c2O)nc2ccccc21 [compound 1292]
Average Number of hTERT Transcripts ([1]; quantitative real-time RT-PCR): 39.11 | Average Cell Viability after 24 Hours (% DMSO) (viable cells in culture): 69.51 % DMSO

COc1ccc(OC)c(NC(=O)C2C3CCC(O3)C2C(=O)O)c1 (stereo not shown) [compound 1221]
Average Number of hTERT Transcripts ([1]; quantitative real-time RT-PCR): 68.62 | Average Cell Viability after 24 Hours (% DMSO) (viable cells in culture): 86.33 % DMSO

CC1(C)CC(NC(=O)c2ccc(S(=O)(=O)N3CCOCC3)cc2)CC(C)(C)N1 [compound 1363]
Average Number of hTERT Transcripts ([1]; quantitative real-time RT-PCR): 32.11 | Average Cell Viability after 24 Hours (% DMSO) (viable cells in culture): 89.56 % DMSO

Cc1cccc(NC(=O)c2c(NC(=O)c3ccncc3)sc3c2CCC(C(C)(C)C)C3)c1 (stereo not shown) [compound 1233]
Average Number of hTERT Transcripts ([1]; quantitative real-time RT-PCR): 41.94 | Average Cell Viability after 24 Hours (% DMSO) (viable cells in culture): 61.61 % DMSO

O=C(NNC1=C(C(=O)C(F)(F)F)CCC1)c1ccc(Br)cc1 [compound 1276]
Average Number of hTERT Transcripts ([1]; quantitative real-time RT-PCR): 9.73 | Average Cell Viability after 24 Hours (% DMSO) (viable cells in culture): 92.70 % DMSO

Cc1ccc(NCC(=O)N/N=C\c2cc(Br)cc(Br)c2O)cc1 [compound 1273]
Average Number of hTERT Transcripts ([1]; quantitative real-time RT-PCR): 40.65 | Average Cell Viability after 24 Hours (% DMSO) (viable cells in culture): 75.55 % DMSO

COC(=O)CSC1=C(C#N)C(c2ccco2)C(C(=O)Nc2ccc(Cl)cc2)=C(C)N1 (stereo not shown) [compound 1248]
Average Number of hTERT Transcripts ([1]; quantitative real-time RT-PCR): 4.69 | Average Cell Viability after 24 Hours (% DMSO) (viable cells in culture): 57.47 % DMSO

NCc1ccc(CNC(=O)c2cc(-c3cccs3)on2)cc1 [compound 1489]
Average Number of hTERT Transcripts [1]: 3.77 | Average Cell Viability after 24 Hours (% DMSO) (viable cells in culture): 107.24 % DMSO

CCCCN(CC)C(=O)CSc1ccccc1 [compound 1398]
Average Number of hTERT Transcripts [1]: 8.01 | Average Cell Viability after 24 Hours (% DMSO) (viable cells in culture): 87.02 % DMSO

O=c1cnnc(N/N=C/c2ccccn2)[nH]1 [compound 1285]
Average Number of hTERT Transcripts ([1]; quantitative real-time RT-PCR): 97.75 | Average Cell Viability after 24 Hours (% DMSO) (viable cells in culture): 65.50 % DMSO

O=C(NC(=S)Nc1cc(Cl)cc(Cl)c1)c1cccc(F)c1 [compound 1339]
Average Number of hTERT Transcripts ([1]; quantitative real-time RT-PCR): 7.09 | Average Cell Viability after 24 Hours (% DMSO) (viable cells in culture): 68.94 % DMSO

From patent US12404304B1, “Telomerase reverse transcriptase (TERT) expression enhancing compounds and methods for using the same” (Sierra Sciences, LLC, priority 2007, dated 2025)
